The supplement of paper PMC10307832

Key:
Assay in all cases: relative viability (nuclei count vs DMSO), 5 days (fraction); higher = more cells survive
NCI-H1915 = conditions: first compound 4 µM
Procedure, shortened: (§1)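 Each reported value is a median over duplicate plates. It expresses relative viability: treated-well nuclei count divided by vehicle-well nuclei count. Lung cancer cell lines in 1536-well plates were dosed by pin tool a day after seeding, alone with one drug or with a fixed anchor-drug dose plus five library-drug doses (not always all listed) in √10 steps, and nuclei were counted after 5 days.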

NCI-H1944 = test system: NCI-H1944
Procedure, shortened: as §1

NCI-H2023 = test system: NCI-H2023
Procedure, shortened: as §1

NCI-H2087 = test system: NCI-H2087
Procedure, shortened: as §1

NCI-H441 = test system: NCI-H441
Procedure, shortened: as §1

NCI-H460 = test system: NCI-H460
Procedure, shortened: as §1

NCI-H520 = test system: NCI-H520
Procedure, shortened: as §1

NCI-H596 = test system: NCI-H596
Procedure, shortened: as §1

NCI-H650 = test system: NCI-H650
Procedure, shortened: as §1

NCI-H661 = test system: NCI-H661
Procedure, shortened: as §1

NCI-H727 = test system: NCI-H727
Procedure, shortened: as §1

PC-3 [JPC-3] = test system: PC-3 [JPC-3]
Procedure, shortened: as §1

Work on `Cc1sc2c(c1C)C(c1ccc(Cl)cc1)=N[C@@H](CC(=O)OC(C)(C)C)c1nnc(C)n1-2` [JQ1] + Cc1cc(Nc2cc(N3CCN(C)CC3)nc(Sc3ccc(NC(=O)C4CC4)cc3)n2)n[nH]1 [Tozasertib] (partner 0.1 µM) yielded a relative viability (NCI-H1915) of 0.15, a relative viability (NCI-H1944; first compound 0.04 µM) of 0.231 and a relative viability (NCI-H1944; first compound 0.1265 µM) of 0.225. It also gave a relative viability (NCI-H1944; first compound 0.4 µM) of 0.227, a relative viability (NCI-H1944; first compound 1.265 µM) of 0.208 and a relative viability (NCI-H1944; first compound 4 µM) of 0.185. For the same compound, the relative viability (NCI-H2023; first compound 0.04 µM) was 0.354, the relative viability (NCI-H2023; first compound 0.1265 µM) was 0.308 and the relative viability (NCI-H2023; first compound 0.4 µM) was 0.186. It also gave a relative viability (NCI-H2023; first compound 1.265 µM) of 0.1, a relative viability (NCI-H2023; first compound 4 µM) of 0.0918 and a relative viability (NCI-H2087; first compound 0.04 µM) of 0.253. It also gave a relative viability (NCI-H2087; first compound 0.1265 µM) of 0.212, a relative viability (NCI-H2087; first compound 0.4 µM) of 0.205 and a relative viability (NCI-H2087; first compound 1.265 µM) of 0.128. For the same compound, the relative viability (NCI-H2087; first compound 4 µM) was 0.144, the relative viability (NCI-H441; first compound 0.04 µM) was 0.629 and the relative viability (NCI-H441; first compound 0.1265 µM) was 0.66. It also gave a relative viability (NCI-H441; first compound 0.4 µM) of 0.631, a relative viability (NCI-H441; first compound 1.265 µM) of 0.417 and a relative viability (NCI-H441; first compound 4 µM) of 0.219. The relative viability (NCI-H460; first compound 0.04 µM) was 0.402, the relative viability (NCI-H460; first compound 0.4 µM) was 0.119 and the relative viability (NCI-H460; first compound 1.265 µM) was 0.0684. For the same compound, the relative viability (NCI-H460; first compound 4 µM) was 0.0339, the relative viability (NCI-H520; first compound 0.04 µM) was 0.508 and the relative viability (NCI-H520; first compound 0.1265 µM) was 0.406. It also gave a relative viability (NCI-H520; first compound 0.4 µM) of 0.332, a relative viability (NCI-H520; first compound 1.265 µM) of 0.296 and a relative viability (NCI-H520; first compound 4 µM) of 0.25. It also gave a relative viability (NCI-H596; first compound 0.04 µM) of 0.822, a relative viability (NCI-H596; first compound 0.1265 µM) of 0.643 and a relative viability (NCI-H596; first compound 0.4 µM) of 0.72. The relative viability (NCI-H596; first compound 1.265 µM) was 0.237, the relative viability (NCI-H596; first compound 4 µM) was 0.225 and the relative viability (NCI-H650; first compound 0.04 µM) was 0.657. For the same compound, the relative viability (NCI-H650; first compound 0.1265 µM) was 0.541, the relative viability (NCI-H650; first compound 0.4 µM) was 0.368 and the relative viability (NCI-H650; first compound 1.265 µM) was 0.21. It also gave a relative viability (NCI-H650; first compound 4 µM) of 0.177, a relative viability (NCI-H661; first compound 0.04 µM) of 0.37 and a relative viability (NCI-H661; first compound 0.1265 µM) of 0.486. For the same compound, the relative viability (NCI-H661; first compound 0.4 µM) was 0.37, the relative viability (NCI-H661; first compound 1.265 µM) was 0.435 and the relative viability (NCI-H661; first compound 4 µM) was 0.401. The relative viability (NCI-H727; first compound 0.04 µM) was 0.714, the relative viability (NCI-H727; first compound 0.1265 µM) was 0.516 and the relative viability (NCI-H727; first compound 0.4 µM) was 0.459. For the same compound, the relative viability (NCI-H727; first compound 1.265 µM) was 0.397, the relative viability (NCI-H727; first compound 4 µM) was 0.387 and the relative viability (PC-3 [JPC-3]; first compound 0.04 µM) was 0.924. For the same compound, the relative viability (PC-3 [JPC-3]; first compound 0.1265 µM) was 0.935, the relative viability (PC-3 [JPC-3]; first compound 0.4 µM) was 0.588 and the relative viability (PC-3 [JPC-3]; first compound 1.265 µM) was 0.502. For the same compound, the relative viability (PC-3 [JPC-3]; first compound 4 µM) was 0.296.
